Measurements published in patent US20140235729A1, “BENZYLAMINE CONTAINING COMPOSITIONS AND METHODS FOR APPETITE SUPPRESSION” (Zija International, Inc., priority 2013, published 2014).

Assays:
[1] = 'thought to be' / 'believed to be'; cited from earlier work
appetite = appetite suppression after oral consumption by a subject; format: in vivo; settings: consumed orally by a subject; 'results have shown'; listed as Moringine
Protocol: Generally speaking, most parts of the Moringa Oleifera tree are edible, with the leaves and seeds often being associated with most of the above-mentioned nutritional and health benefits.
However, the medium lethal dose (LD50) of benzylamine in subjects is understood to be about 600 milligrams (mg) per kilogram (kg) (i.e., 600 mg/kg). […] However, in accordance with the novel appetite suppression compositions and methods described herein, an effective amount of benzylamine that is far below the LD50 can be orally administered to adult humans for appetite suppression.

[2] = in subjects; 'understood to be'; cited from earlier work

NCc1ccccc1 [benzylamine]
in vivo half-life [1]: 15 to 30 min | appetite suppression (appetite): can suppress a subject's appetite | medium lethal dose (LD50) [2]: about 600 mg/kg
